Columns and labels:
[1] = test system: Rat calvarial osteoblasts (RCO); assay: Alkaline phosphatase (ALP) assay, osteoblast differentiation; format: cell-based; details: 48 h, ALP activity
Protocol: Calvaria from ten to twelve 1-2 day old rat pups were harvested, cleaned, and subjected to five sequential enzymatic digestions (0.1% diaspase and 0.1% collagenase I) of 10-15 min each. Cells from second to fifth digestion were collected, centrifuged, re-suspended and cultured in α-MEM containing 10% fetal bovine serum (FBS) and 1% penicillin/streptomycin (complete growth medium).
For ALP assay, RCO were trypsinized at 80% confluence and 2×10^3 cells/well were seeded onto 24-well plates. Cells were treated with different compounds isolated from extract & vehicle for 48 h in α-MEM supplemented with 10 mM β-glycerophosphate, […] and 1% penicillin/streptomycin (osteoblast differentiation medium).
At the end of the experiment, cells were washed with PBS, freeze fractured by placing the plates at −70° C. for 15 minutes followed by bringing to room temperature. ALP activity was measured by adding 100 µl p-nitrophenylphosphate buffer (2 mg/ml pNPP and 0.25 mM MgCl2 in 1 M diethanolamine). The absorption was measured at 405 nm with a microplate reader.

osteopenic mice = assay: Osteopenic (OVX) mice model; format: in vivo, balb/c mice
Protocol: 50 adult female balb/c mice (20±3 g, 10-12 months) underwent either sham surgery or ovariectomy (OVX). 6 weeks post-surgery, mice were scanned using μCT to ensure development of osteopenia. Treatments of 219/[…] (5 mg/kg), 219/[…] (1 mg/kg and 5 mg/kg), PTH (40 μg/kg) and vehicle (water) were given to OVX mice with osteopenia for another 6 weeks, and vehicle treatment was given to sham operated mice for the same duration (n=10/group). After 6 weeks all mice were sacrificed and bones were collected for further experiment. A high-resolution X-ray micro-computed tomographic (μCT) for two-dimensional (2D) and three-dimensional (3D) assessment of bones (excised bones) were carried out using a Sky Scan 1076 μCT scanner (SkyScan, Ltd, Kartuizersweg, Kontich, Belgium). Briefly, after scanning bone samples at a nominal resolution (pixels) of 9 μm, cross-sectional reconstruction was made using SkyScanNrecon software based on a modified Feldkamp algorithm. To analyze trabecular bone, region of interest was drawn on a total of 100 slices in the region of secondary spongiosa situated 1.5 mm away from the distal border of growth plate (GP) excluding primary spongiosa and cortical bone. Quantification was done by employing Batman software encumbered with trabecular (3D) and cortical (2D) bone programs. Using μCT scans, trabecular bone mineral density (BMD) of femurs was determined from the volume of interest made for cortical and trabecular region, respectively. […] Bone mechanical strength was examined by three-point bending of femur diaphysis with bone strength tester TK […] (Muromachi Kikai Co. Ltd, Tokyo, Japan).

Runx2 mRNA = assay: qPCR osteogenic gene expression in rat calvarial osteoblast; format: cell-based; details: mRNA by qPCR, 48 h, active concentration of the compounds
[2] = rat, in vivo, 250 mg/kg
Protocol: LC-MS/MS-API 4000 (Q-TRAP) triple quadrupole (AB-SCIEX, Toronto, Canada). The mass spectrometer was operated using an electrospray atmospheric pressure ionization source in positive ion mode.
a) Fingerprinting of 219/C002 Extract
Primary stock: 1 mg/mL in DMSO
Secondary stock: 50 ng/mL in Methanol
Continuous injection at 10 μL/min from secondary stock.
b) Fingerprinting of Blank Rat Plasma:
Blood was collected from overnight fasted rats and plasma was seperated. Plasma was precipitated with methanol (1:5 v/v), vortexed and centrifuged. The supernatant was collected and diluted with methanol (1:10 v/v). Continuous injection at 10 μL/min
c) Fingerprinting of 250 mg/kg (Oral) 219/C002 Treated Rat Plasma
Overnight fasted rats were administered 250 mg/kg 219/C002 extract suspension orally. Blood was collected after 45 min and plasma was separated. Plasma was precipitated with methanol (1:5 v/v), vortexed and centrifuged. The supernatant was collected and diluted with methanol (1:10 v/v). Continuous injection into the column at 10 μL/min.
The mass spectrometer [LC-MS/MS-API 4000 (Q-TRAP) triple quadrupole (AB-SCIEX, Toronto, Canada)] was used for the assay. Overnight fasted rats were administered 250 mg/kg extract suspension orally. Blood was collected after 45 min and plasma was separated. Plasma was precipitated with methanol, vortexed and centrifuged. The supernatant was collected and diluted with methanol. Continuous injection at 10 μL/min was done for extract, blank plasma and extract treated plasma.

[3] = test system: type 1 collagen (col1) mRNA; assay: qPCR osteogenic gene expression in rat calvarial osteoblast; format: cell-based; details: mRNA by qPCR, 48 h, active concentration of the compounds
BMP2 mRNA = assay: as above; format: cell-based; details: mRNA by qPCR, 48 h, active concentration of the compounds
[4] = test system: MP treated animals (adult male SD rats); assay: MP induced secondary osteoporosis model; format: in vivo, rat; details: MP 5 mg/Kg s.c. 1 month, MP alone or MP+219/C002 250 mg/kg, 219/F005 100 mg/kg, 219/F005-F 50 mg/kg
Protocol: 50 adult male SD rats (260±20 g, 8-10 months) were divided into 5 groups. 5 mg/Kg methylprednisolone was administered subcutaneously for 1 month to induce osteoporosis. 219/C002 (250 mg/kg), 219/F005 (100 mg/Kg), 219/F005-F (50 mg/kg) treatment were given to check the efficacy of the extract and its different fraction along with methylprednisolone (n=10/group). After 1 month all rats were sacrificed and bones were collected for further experiment.
A high-resolution X-ray micro-computed tomographic (μCT) for two-dimensional (2D) and three-dimensional (3D) assessment of bones (excised bones) were carried out using a Sky Scan 1076 μCT scanner (SkyScan, Ltd, Kartuizersweg, Kontich, Belgium). Briefly, after scanning bone samples at a nominal resolution (pixels) of 9 μm, cross-sectional reconstruction was made using SkyScanNrecon software based on a modified Feldkamp algorithm. To analyze trabecular bone, region of interest was drawn on a total of 100 slices in the region of secondary spongiosa situated 1.5 mm away from the distal border of growth plate (GP) excluding primary spongiosa and cortical bone. Quantification was done by employing Batman software encumbered with trabecular (3D) and cortical (2D) bone programs. Using μCT scans, trabecular bone mineral density (BMD) of femurs was determined from the volume of interest made for cortical and trabecular region, respectively. For calibration, hydroxyl apatite phantom rods of 4 mm of diameter with known BMD (0.25 g/cm^3 and 0.75 g/cm^3) were employed.
Animals were kept in metabolic cages without food but with respective treatment and ad libitum water. Fasting serum samples were collected after 24 h. Serumprocollagen type I N-terminal propeptide (PINP) levels were determined by ELISA (MyBioSource, USA.), following the manufacturer's protocols.
Bone mechanical strength was examined by three-point bending of femur diaphysis with bone strength tester TK 252C (Muromachi Kikai Co. Ltd, Tokyo, Japan).

| Structure (SMILES) | osteogenic concentration [1] | RunX2 expression (Runx2 mRNA) | oral absorption: detection in plasma [2] | Col1 expression [3] | also measured |
| --- | --- | --- | --- | --- | --- |
| O=c1cc(-c2ccc(O)cc2)oc2cc(O)cc(O)c12 [219/K007, Apigenin] | (1 μM) | promoted | detected in extract and in extract-treated rat plasma but not in blank rat plasma | promoted | femur cortical strength (three-point bending) (osteopenic mice; 6 weeks treatment): partially improve cortical strength |
| O=c1cc(-c2ccc(O)cc2)oc2cc(O)ccc12 [219/K009, 7,4′-dihydroxy flavone] | (10 nM) | promoted | detected in extract and in extract-treated rat plasma but not in blank rat plasma | promoted |  |
| O=c1cc(-c2ccc(O)c(O)c2)oc2cc(O)cc(O)c12 [219/K010, Luteolin] | (1 nM) |  |  |  |  |
| O=c1cc(-c2ccc(O)c(O)c2)oc2cc(O)ccc12 [219/K011, 7,3′,4′-trihydroxy-flavone] | (10 nM) | promoted |  | promoted | BMP2 expression (BMP2 mRNA): promoted BMP2 expression |
| Cc1cc(O)c2c(c1)C(=O)c1cc(O)cc(O)c1C2=O [219/K012, Emodin] | (10 nM) |  |  |  |  |
| O=c1cc(-c2ccc(O)cc2)oc2cc(O)c([C@@H]3O[C@H](CO)[C@@H](O)[C@H](O)[C@H]3O)c(O)c12 [219/K017, Isovitexin] | (1 μM) | promoted | detected in extract and in extract-treated rat plasma but not in blank rat plasma | promoted | femur trabecular microarchitecture (BMD, BV/TV) (osteopenic mice; 5 mg/Kg, 6 weeks): completely restored femur trabecular microarchitecture; bone strength of femur, higher than with 219/K007 (apigenin) treatment (osteopenic mice; 6 weeks treatment): 80%; femur cortical strength (three-point bending) (osteopenic mice; 6 weeks treatment): restored femur cortical strength; total bone volume of femur, higher than with 219/K007 (apigenin) treatment (osteopenic mice; 6 weeks treatment): 72%; BMP2 expression (BMP2 mRNA): promoted BMP2 expression |
| C[C@H]1C[C@@H]2[C@H]([C@@H](O)C[C@@]3(C)[C@H]2CC[C@]3(O)C(=O)CO)[C@@]2(C)C=CC(=O)C=C12 [MP, Methylprednisolone] |  |  |  |  | BMD ([4]; mean, n=10): 0.281 gm-HA/cm^3; BV/TV ([4]; mean, n=10): 18.33%; Serum PINP ([4]; mean, n=10): 50.17 ng/mL; Energy ([4]; femur three-point bending): 75.67 mJ; Max power ([4]; femur three-point bending): 82.17 N; Stiffness ([4]; femur three-point bending): 108.17 N/mm |
| O=C(O)c1ccccn1 [Picolonic acid] |  |  | detected in extract and in extract-treated rat plasma but not in blank rat plasma |  |  |

From patent publication US11304927B2, “Bioactive extract, fraction of Cassia occidentalis and formulation thereof for bone regeneration” (COUNCIL OF SCIENTIFIC AND INDUSTRIAL RESEARCH, priority 2018, dated 2022)
